Source: ChEMBL document CHEMBL1126559, “Further studies of the structure-activity relationships of 1-[1-(2-benzo[b]thienyl)cyclohexyl]piperidine. Synthesis and evaluation of 1-(2-benzo[b]thienyl)-N,N-dialkylcyclohexylamines at dopamine uptake and phencyclidine binding sites” (J Med Chem, 1993)

Legend:
[1] = molecular target: T1, Sodium-dependent dopamine transporter (Rattus norvegicus, UniProt P23977); assay: Tested for radioligand [3H]BTCP displacement from dopamine transporter in rat forebrain
T1 sequence (P23977 whole entry): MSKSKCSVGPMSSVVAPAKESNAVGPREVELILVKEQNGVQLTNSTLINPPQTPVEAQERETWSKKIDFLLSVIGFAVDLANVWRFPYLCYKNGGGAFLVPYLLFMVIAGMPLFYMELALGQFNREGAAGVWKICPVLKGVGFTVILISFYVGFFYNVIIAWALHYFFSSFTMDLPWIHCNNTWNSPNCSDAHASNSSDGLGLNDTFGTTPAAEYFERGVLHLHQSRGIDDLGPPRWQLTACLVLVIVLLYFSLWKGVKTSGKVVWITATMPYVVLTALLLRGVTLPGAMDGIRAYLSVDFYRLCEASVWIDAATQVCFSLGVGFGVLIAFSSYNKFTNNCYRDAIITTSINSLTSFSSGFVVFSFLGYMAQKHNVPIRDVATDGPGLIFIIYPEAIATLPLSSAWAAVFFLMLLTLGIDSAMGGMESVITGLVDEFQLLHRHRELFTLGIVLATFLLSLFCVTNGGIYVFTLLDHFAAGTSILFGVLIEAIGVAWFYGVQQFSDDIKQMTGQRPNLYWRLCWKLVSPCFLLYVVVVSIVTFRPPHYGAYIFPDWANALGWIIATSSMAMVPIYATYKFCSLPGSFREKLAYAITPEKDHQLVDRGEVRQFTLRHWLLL

[2] = molecular target: T1, Sodium-dependent dopamine transporter; assay: Tested for inhibition of radioligand [3H]dopamine (DA) uptake in rat synaptosomes; format: subcellular, Brain
[3] = molecular target: T1, Sodium-dependent dopamine transporter; assay: Tested for radioligand [3H]cocaine displacement from dopamine transporter in rat forebrain
Glutamate NMDA receptor = assay: Tested for affinity by radioligand [3H]-TCP displacement from phencyclidine binding site (PCP) in rat homogenates

SMILES | IC50 [1] | IC50 [2] | IC50 [3] | Ki (Glutamate NMDA receptor)
C=CCNC1(c2cc3ccccc3s2)CCCCC1 | 0.007 µM | 0.011 µM | 0.057 µM | > 10 µM
CC(C)=CCNC1(c2cc3ccccc3s2)CCCCC1 | 0.008 µM | 0.014 µM | 0.05 µM | > 10 µM
NCC(=O)NC1(c2cc3ccccc3s2)CCCCC1 | 0.114 µM | 0.138 µM | 0.841 µM | > 10 µM
CNC1(c2cc3ccccc3s2)CCCCC1 | 0.101 µM | 0.057 µM | 0.27 µM | > 10 µM
O=C(Cc1ccc(Cl)c(Cl)c1)NCCNC1(c2cc3ccccc3s2)CCCCC1 | 0.579 µM | 0.947 µM | 1.48 µM | > 10 µM
CCCCN(C)C1(c2cc3ccccc3s2)CCCCC1 | 0.021 µM | 0.033 µM | 0.161 µM | > 10 µM
CNCCNC1(c2cc3ccccc3s2)CCCCC1 | 0.017 µM | 0.029 µM | 0.063 µM | > 10 µM
CCN(CC)C1(c2cc3ccccc3s2)CCCCC1 | 0.012 µM | 0.012 µM | 0.042 µM | > 10 µM
CCCNC1(c2cc3ccccc3s2)CCCCC1 | 0.004 µM | 0.005 µM | 0.057 µM | > 10 µM
NCCCNC1(c2cc3ccccc3s2)CCCCC1 |  |  |  | > 10 µM
CCCCNC1(c2cc3ccccc3s2)CCCCC1 | 0.0003 µM | 0.007 µM | 0.06 µM | > 10 µM
c1ccc(CNC2(c3cc4ccccc4s3)CCCCC2)cc1 | 0.143 µM | 0.196 µM |  | > 10 µM
CCCCN(CCCC)C1(c2cc3ccccc3s2)CCCCC1 | 0.124 µM | 1.36 µM | 0.386 µM | > 10 µM
Clc1ccc(CCNCCNC2(c3cc4ccccc4s3)CCCCC2)cc1Cl | 0.211 µM | 0.174 µM | 0.713 µM | > 10 µM
Clc1ccc(CCNC2(c3cc4ccccc4s3)CCCCC2)cc1Cl | 1 µM | > 5 µM | > 5 µM | > 10 µM
c1ccc2sc(C3(NCC4CCC4)CCCCC3)cc2c1 | 0.004 µM | 0.007 µM | 0.037 µM | > 10 µM
CN(C)C1(c2cc3ccccc3s2)CCCCC1 | 0.027 µM | 0.051 µM | 0.084 µM | > 10 µM
COC(=O)[C@H]1[C@@H](OC(=O)c2ccccc2)C[C@@H]2CC[C@H]1N2C [COCAINE] |  |  |  | > 10 µM
O=C1NCCN1C1(c2cc3ccccc3s2)CCCCC1 | 1.74 µM | 2.12 µM | > 5 µM | > 10 µM
NCCNC1(c2cc3ccccc3s2)CCCCC1 | 0.03 µM | 0.088 µM | 0.17 µM | > 10 µM
CCCCCNC1(c2cc3ccccc3s2)CCCCC1 | 0.024 µM | 0.034 µM | 0.337 µM | > 10 µM
c1ccc2sc(C3(N4CCCCC4)CCCCC3)cc2c1 |  | 0.011 µM | 0.039 µM | > 10 µM
CCCN(CCC)C1(c2cc3ccccc3s2)CCCCC1 | 0.037 µM | 0.081 µM | 0.22 µM | > 10 µM
c1ccc2sc(C3(NCC4CC4)CCCCC3)cc2c1 | 0.001 µM | 0.004 µM | 0.023 µM | > 10 µM
CNCCCNC1(c2cc3ccccc3s2)CCCCC1 | 0.008 µM | 0.089 µM | 0.746 µM | > 10 µM
CCNC1(c2cc3ccccc3s2)CCCCC1 | 0.022 µM | 0.022 µM | 0.165 µM | > 10 µM
CNCCCCNC1(c2cc3ccccc3s2)CCCCC1 | 0.05 µM | 0.033 µM | 0.328 µM | > 10 µM
CCCN(CC)C1(c2cc3ccccc3s2)CCCCC1 | 0.02 µM | 0.017 µM | 0.207 µM | > 10 µM
